These results are taken from patent US11339130B1 (Blade Therapeutics, Inc., priority 2016, dated 2022).

In one assay the target is T1, Human Calpain 1/NS1 (Homo sapiens, UniProt P07384).
T1 sequence (P07384 1-714): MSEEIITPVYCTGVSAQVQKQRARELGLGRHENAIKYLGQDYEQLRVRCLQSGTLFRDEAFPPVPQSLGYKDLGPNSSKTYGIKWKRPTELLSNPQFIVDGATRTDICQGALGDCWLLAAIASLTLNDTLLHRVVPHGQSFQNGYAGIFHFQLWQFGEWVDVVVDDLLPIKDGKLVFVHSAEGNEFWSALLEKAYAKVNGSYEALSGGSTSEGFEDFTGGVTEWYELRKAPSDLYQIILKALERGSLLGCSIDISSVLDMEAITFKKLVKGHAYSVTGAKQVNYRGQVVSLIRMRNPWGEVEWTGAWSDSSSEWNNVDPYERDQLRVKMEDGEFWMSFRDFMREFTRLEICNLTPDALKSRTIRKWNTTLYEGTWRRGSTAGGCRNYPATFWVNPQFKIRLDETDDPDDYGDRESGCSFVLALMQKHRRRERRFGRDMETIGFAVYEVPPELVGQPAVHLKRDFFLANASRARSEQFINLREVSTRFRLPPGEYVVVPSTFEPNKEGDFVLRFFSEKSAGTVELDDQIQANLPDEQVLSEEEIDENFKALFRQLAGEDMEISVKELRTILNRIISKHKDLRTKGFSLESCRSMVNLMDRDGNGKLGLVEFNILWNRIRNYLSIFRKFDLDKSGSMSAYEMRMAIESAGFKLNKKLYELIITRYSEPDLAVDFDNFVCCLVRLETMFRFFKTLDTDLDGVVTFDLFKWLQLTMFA
T1 sequence (P04632 1-268 partner): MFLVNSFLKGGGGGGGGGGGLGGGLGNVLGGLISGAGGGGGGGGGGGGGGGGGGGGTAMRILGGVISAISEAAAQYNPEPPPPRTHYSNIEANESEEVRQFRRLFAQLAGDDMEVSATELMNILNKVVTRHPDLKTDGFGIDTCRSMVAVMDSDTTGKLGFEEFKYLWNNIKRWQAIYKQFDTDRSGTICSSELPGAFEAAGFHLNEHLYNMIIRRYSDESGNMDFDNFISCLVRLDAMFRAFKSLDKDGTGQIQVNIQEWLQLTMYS
Put plainly: Calpain inhibition continuous fluorescence (FRET) assay, Human Calpain 1/NS1. The class given is biochemical. The settings on record: Column A; read-out: Human Calpain 1/NS1 IC50. The gist of the method: (§1)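 Buffer 50 mM Tris pH 7.5/100 mM NaCl/1 mM DTT; enzyme + cpd preinc 25C; start w/ FRET substrate + CaCl2; kinetic 490/520 nm, 10 min; slopes 1-5 min; 4-PL IC50.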

The test system of assay [1] is Calpain activity in SH-SY5Y cells. Nature of the assay: SH-SY5Y + AMC fluorescence assay (Suc-LLVY-AMC substrate). The class given is cell-based. The settings on record: Column E, read-out: SH-SY5Y + AMC IC50.
Assay [2] relates to Calpain activity in SH-SY5Y cells (SBDP-150). Nature of the assay: SH-SY5Y Spectrin western blot assay (SBDP-150 breakdown product, A23187-induced). Format: cell-based. The note with it: Homo sapiens; Column D; SH-SY5Y cells, A23187-induced SBDP-150; read-out: SH-SY5Y Spectrin IC50. For orientation: Immunoblotting shows a protein as a band on a membrane.
The target of a further assay is T2, Human Calpain 9/NS1 (Homo sapiens, UniProt O14815).
T2 sequence (O14815 1-690): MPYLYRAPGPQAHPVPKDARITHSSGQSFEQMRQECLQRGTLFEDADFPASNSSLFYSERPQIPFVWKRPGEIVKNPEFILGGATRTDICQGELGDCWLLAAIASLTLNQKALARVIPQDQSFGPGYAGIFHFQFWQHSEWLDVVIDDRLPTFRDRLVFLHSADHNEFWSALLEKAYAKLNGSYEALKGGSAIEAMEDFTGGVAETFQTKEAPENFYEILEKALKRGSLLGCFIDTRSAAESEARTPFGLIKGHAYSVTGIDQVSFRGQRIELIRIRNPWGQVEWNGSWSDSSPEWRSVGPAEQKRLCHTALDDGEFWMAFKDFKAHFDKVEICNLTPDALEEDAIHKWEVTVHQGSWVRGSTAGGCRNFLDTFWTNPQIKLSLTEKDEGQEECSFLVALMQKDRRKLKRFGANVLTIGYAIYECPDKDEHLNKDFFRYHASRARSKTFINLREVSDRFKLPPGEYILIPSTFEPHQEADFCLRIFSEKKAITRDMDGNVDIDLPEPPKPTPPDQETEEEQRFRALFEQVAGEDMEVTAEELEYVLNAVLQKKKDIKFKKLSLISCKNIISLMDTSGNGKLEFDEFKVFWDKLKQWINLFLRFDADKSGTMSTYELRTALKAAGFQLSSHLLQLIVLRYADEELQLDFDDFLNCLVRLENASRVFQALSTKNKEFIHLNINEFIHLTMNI
T2 sequence (P04632 1-268 partner): T1 sequence (P04632 1-268 partner)
Put plainly: Calpain inhibition continuous fluorescence (FRET) assay, Human Calpain 9/NS1. Format: biochemical. The settings on record: Column C; read-out: Human Calpain 9/NS1 IC50. The gist of the method: as §1

In another assay the target is T3, Human Calpain 2/NS1 (Homo sapiens, UniProt P17655).
T3 sequence (P17655 1-700): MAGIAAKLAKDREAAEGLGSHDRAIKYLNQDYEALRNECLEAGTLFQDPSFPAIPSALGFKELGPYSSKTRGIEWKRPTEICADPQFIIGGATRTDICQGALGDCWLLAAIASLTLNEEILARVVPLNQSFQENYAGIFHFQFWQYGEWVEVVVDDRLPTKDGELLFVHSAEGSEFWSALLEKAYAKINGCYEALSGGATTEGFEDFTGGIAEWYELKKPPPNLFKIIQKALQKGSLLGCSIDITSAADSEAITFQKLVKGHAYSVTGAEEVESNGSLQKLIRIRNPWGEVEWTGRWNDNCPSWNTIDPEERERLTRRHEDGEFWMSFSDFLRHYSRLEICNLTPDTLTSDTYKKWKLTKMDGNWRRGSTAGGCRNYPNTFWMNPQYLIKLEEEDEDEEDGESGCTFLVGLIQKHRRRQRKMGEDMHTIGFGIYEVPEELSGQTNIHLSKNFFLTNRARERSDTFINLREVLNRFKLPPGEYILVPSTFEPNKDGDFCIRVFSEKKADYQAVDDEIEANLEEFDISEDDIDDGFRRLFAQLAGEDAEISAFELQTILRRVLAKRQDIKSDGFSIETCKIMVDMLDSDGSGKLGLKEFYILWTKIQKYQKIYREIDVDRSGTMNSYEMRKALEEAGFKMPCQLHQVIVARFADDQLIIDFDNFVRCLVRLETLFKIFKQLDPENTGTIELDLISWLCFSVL
T3 sequence (P04632 1-268 partner): T1 sequence (P04632 1-268 partner)
Nature of the assay: Calpain inhibition continuous fluorescence (FRET) assay, Human Calpain 2/NS1. The class given is biochemical. The note with it: Column B; read-out: Human Calpain 2/NS1 IC50. The gist of the method: as §1

On to `Cc1nc(-c2ccccc2)c(C(=O)N[C@@H](Cc2ccc(F)cc2)C(=O)C(N)=O)o1` [Compound 107, (S)—N-(4-amino-1-(4-fluorophenyl)-3,4-dioxobutan-2-yl)-2-methyl-4-phenyloxazole-5-carboxamide], for which the IC50 is < 3 µM at Human Calpain 1/NS1; < 10 µM in assay [1]; < 10 µM in assay [2]; < 3 µM on Human Calpain 9/NS1; < 3 µM at Human Calpain 2/NS1.

As to `NC(=O)C(=O)[C@H](Cc1ccccc1)NC(=O)c1cncn1-c1ccc(-c2ncco2)cn1` [Compound 112, (S)—N-(4-amino-3,4-dioxo-1-phenylbutan-2-yl)-1-(5-(oxazol-2-yl)pyridin-2-yl)-1H-imidazole-5-carboxamide], the IC50 was < 3 µM at Human Calpain 1/NS1; > 25 µM in assay [1]; < 10 µM in assay [2]; < 3 µM at Human Calpain 9/NS1; < 3 µM at Human Calpain 2/NS1.

`Cc1cc(C(=O)N[C@@H](Cc2ccccc2)C(=O)C(N)=O)n(-c2ncc(-c3ccccc3)s2)n1` [Compound 113, (S)—N-(4-amino-3,4-dioxo-1-phenylbutan-2-yl)-3-methyl-1-(5-phenylthiazol-2-yl)-1H-pyrazole-5-carboxamide]: the IC50 on Human Calpain 1/NS1 is < 3 µM; in assay [1], > 25 µM; in assay [2] it was < 10 µM; on Human Calpain 9/NS1 it was < 3 µM; at Human Calpain 2/NS1 it was < 3 µM.

`Cc1cc(C(=O)N[C@@H](Cc2ccccc2)C(=O)C(N)=O)c(-c2ccccc2)o1` [Compound 118, (S)—N-(4-amino-3,4-dioxo-1-phenylbutan-2-yl)-5-methyl-2-phenylfuran-3-carboxamide]: the IC50 on Human Calpain 1/NS1 is < 3 µM; in assay [1], > 25 µM; in assay [2], < 10 µM; at Human Calpain 9/NS1 it was < 3 µM; on Human Calpain 2/NS1 it was < 3 µM.

Take `Cc1ccc(-n2nc(C)cc2C(=O)N[C@@H](Cc2ccccc2)C(=O)C(N)=O)nc1` [Compound 120, (S)—N-(4-amino-3,4-dioxo-1-phenylbutan-2-yl)-3-methyl-1-(5-methylpyridin-2-yl)-1H-pyrazole-5-carboxamide]: the IC50 at Human Calpain 1/NS1 was < 3 µM; in assay [1], 10 to 25 µM; in assay [2], < 10 µM; on Human Calpain 9/NS1, < 3 µM; at Human Calpain 2/NS1 it was < 3 µM.

Take `Cc1cc(C(=O)N[C@@H](Cc2ccccc2)C(=O)C(N)=O)n(-c2ccc(-c3ccc(F)cc3)cc2)n1` [Compound 126, (S)—N-(4-amino-3,4-dioxo-1-phenylbutan-2-yl)-1-(4′-fluoro-[1,1′-biphenyl]-4-yl)-3-methyl-1H-pyrazole-5-carboxamide]: the IC50 was < 3 µM on Human Calpain 1/NS1; > 25 µM in assay [1]; < 10 µM in assay [2]; < 3 µM at Human Calpain 9/NS1; < 3 µM at Human Calpain 2/NS1.

Consider `Cc1ccc(-c2ccc(-n3nc(C)cc3C(=O)N[C@@H](Cc3ccccc3)C(=O)C(N)=O)cc2)cc1` [Compound 130], for which the IC50 on Human Calpain 1/NS1 is < 3 µM; in assay [1], > 25 µM; in assay [2], < 10 µM; at Human Calpain 9/NS1, < 3 µM; at Human Calpain 2/NS1 it was < 3 µM.

For the molecule `Cc1cc(C(=O)N[C@@H](Cc2ccccc2)C(=O)C(N)=O)n(-c2ccc(COc3ccccc3)cc2)n1` [Compound 131, (S)—N-(4-amino-3,4-dioxo-1-phenylbutan-2-yl)-3-methyl-1-(4-(phenoxymethyl)phenyl)-1H-pyrazole-5-carboxamide], the IC50 at Human Calpain 1/NS1 is < 3 µM; in assay [1] it was > 25 µM; in assay [2], 10 to 25 µM; on Human Calpain 9/NS1, < 3 µM; on Human Calpain 2/NS1, < 3 µM.

Consider `Cc1cc(C(=O)N[C@@H](Cc2ccccc2)C(=O)C(N)=O)n(-c2cccnc2)n1` [Compound 136, (S)—N-(4-amino-3,4-dioxo-1-phenylbutan-2-yl)-3-methyl-1-(pyridin-3-yl)-1H-pyrazole-5-carboxamide], for which the IC50 at Human Calpain 1/NS1 was < 3 µM; in assay [1], 10 to 25 µM; in assay [2], 10 to 25 µM; at Human Calpain 9/NS1, < 3 µM; on Human Calpain 2/NS1 it was < 3 µM.

Turning to `Cc1cc(C(=O)N[C@@H](Cc2ccccc2)C(=O)C(N)=O)n(-c2cccc(CNC(=O)CCc3ccccc3)c2)n1` [Compound 142, (S)—N-(4-amino-3,4-dioxo-1-phenylbutan-2-yl)-3-methyl-1-(3-((3-phenylpropanamido)methyl)phenyl)-1H-pyrazole-5-carboxamide], the IC50 is < 3 µM on Human Calpain 1/NS1; < 10 µM in assay [1]; 10 to 25 µM in assay [2]; < 3 µM at Human Calpain 9/NS1; < 3 µM at Human Calpain 2/NS1.

For the molecule `CC(=O)NCc1cccc(-n2nc(C)cc2C(=O)N[C@@H](Cc2ccccc2)C(=O)C(N)=O)c1` [Compound 143, (S)-1-(3-(acetamidomethyl)phenyl)-N-(4-amino-3,4-dioxo-1-phenylbutan-2-yl)-3-methyl-1H-pyrazole-5-carboxamide], the IC50 is < 3 µM at Human Calpain 1/NS1; < 10 µM in assay [1]; 10 to 25 µM in assay [2]; < 3 µM on Human Calpain 9/NS1; < 3 µM on Human Calpain 2/NS1.

Regarding `Cc1cc(C(=O)N[C@@H](Cc2ccccc2)C(=O)C(N)=O)n(-c2cccc(CNC(=O)Cc3ccccc3)c2)n1` [Compound 144, (S)—N-(4-amino-3,4-dioxo-1-phenylbutan-2-yl)-3-methyl-1-(3-((2-phenylacetamido)methyl)phenyl)-1H-pyrazole-5-carboxamide], the IC50 at Human Calpain 1/NS1 is < 3 µM; in assay [1] it was < 10 µM; in assay [2], < 10 µM; on Human Calpain 9/NS1, < 3 µM; at Human Calpain 2/NS1 it was < 3 µM.
